23 molecules from US11254663B2 (BRISTOL-MYERS SQUIBB COMPANY, priority 2019, dated 2022) can be followed below.

By EC50 is commonly meant the concentration at which the effect is half-maximal. Higher therefore signals a less potent agent.

This assay deals with FXR (Homo sapiens (Human), UniProt Q96RI1). Briefly: transient human FXR/Gal4-luciferase reporter assay. In kind it is cell-based. The procedure, abridged: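 Compound exposure ran overnight at 37 °C and activity was measured as luminescence with Steady-Glo reagent. The cells were a HEK293 line stably expressing firefly luciferase under five Gal4 response elements. They were transiently transfected, one night beforehand, with a plasmid encoding Gal4 DNA-binding domain fused to the human FXR ligand-binding domain.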
Chain of FXR (Q96RI1 262-486): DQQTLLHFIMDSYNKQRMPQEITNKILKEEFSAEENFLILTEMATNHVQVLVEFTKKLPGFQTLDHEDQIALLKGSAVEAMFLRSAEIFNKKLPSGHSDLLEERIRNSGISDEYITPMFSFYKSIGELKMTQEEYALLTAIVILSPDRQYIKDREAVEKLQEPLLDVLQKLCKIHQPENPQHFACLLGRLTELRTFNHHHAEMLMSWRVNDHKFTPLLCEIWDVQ

[1] abbreviates: Gal4-hFXR fusion construct, HEK293 reporter cells, response relative to 8 μM GW-4064.

Structures are written as SMILES. Like-named read-outs stand apart in the source and are kept apart here.

As for `CCOc1ccc(-c2cccc(N(CC34CCC(c5noc(C(C)(F)F)n5)(CC3)CC4)C(=O)C34CC(F)(C3)C4)c2)cc1` [Example 527, N-((4-(5-(1,1-difluoroethyl)-1,2,4-oxadiazol-3-yl)bicyclo[2.2.2]octan-1-yl)methyl)-N-(4′-ethoxy-[1,1′-biphenyl]-3-yl)-3-fluorobicyclo[1.1.1]pentane-1-carboxamide], under setting [1], the EC50 was found to be 103 nM. Turning to `Cc1nc2ccc(-c3ccnc(N(CC45CCC(c6cc(C7CC7)nn6C)(CC4)CC5)C(=O)C45CC(F)(C4)C5)c3)cc2s1` [Example 546, N-((4-(3-cyclopropyl-1-methyl-1H-pyrazol-5-yl)bicyclo[2.2.2]octan-1-yl)methyl)-3-fluoro-N-(4-(2-methylbenzo[d]thiazol-6-yl)pyridin-2-yl)bicyclo[1.1.1]pentane-1-carboxamide], a half-maximal response (EC50) required 48 nM. On to `CCOc1cnc(-c2cccc(N(CC34CCC(c5nc(C(C)(C)C)no5)(CC3)CC4)C(=O)C34CC(F)(C3)C4)c2)nc1` [Example 370, N-((4-(3-(tert-butyl)-1,2,4-oxadiazol-5-yl)bicyclo[2.2.2]octan-1-yl)methyl)-N-(3-(5-ethoxypyrimidin-2-yl)phenyl)-3-fluorobicyclo[1.1.1]pentane-1-carboxamide], for which, under setting [1], a half-maximal response (EC50) required 121 nM. With `O=C(N(CC12CCC(c3noc(C4(C(F)(F)F)CC4)n3)(CC1)CC2)c1cccc(-c2ccc(OC(F)F)cc2)c1)C12CC(F)(C1)C2` [Example 522, N-(4′-(difluoromethoxy)-[1,1′-biphenyl]-3-yl)-3-fluoro-N-((4-(5-(1-(trifluoromethyl)cyclopropyl)-1,2,4-oxadiazol-3-yl)bicyclo[2.2.2]octan-1-yl)methyl)bicyclo[1.1.1]pentane-1-carboxamide], the response was half-maximal at 69 nM (EC50). Take `CC(C)Oc1ccc(-c2cccc(N(CC34CCC(c5noc(C(C)(C)F)n5)(CC3)CC4)C(=O)OC3(C(F)(F)F)COC3)c2)cc1` [Example 632, 3-(trifluoromethyl)oxetan-3-yl ((4-(5-(2-fluoropropan-2-yl)-1,2,4-oxadiazol-3-yl)bicyclo[2.2.2]octan-1-yl)methyl)(4′-isopropoxy-[1,1′-biphenyl]-3-yl)carbamate]: the midpoint of the response under setting [1], the EC50, lay at 222 nM. Regarding `CCc1cnc(-c2cccc(N(CC34CCC(c5ccc(C(F)(F)F)cn5)(CC3)CC4)C(=O)C34CC(F)(C3)C4)c2)nc1` [Example 496, N-(3-(5-ethylpyrimidin-2-yl)phenyl)-3-fluoro-N-((4-(5-(trifluoromethyl)pyridin-2-yl)bicyclo[2.2.2]octan-1-yl)methyl)bicyclo[1.1.1]pentane-1-carboxamide], a half-maximal response (EC50) required 539 nM. Under setting [1], `Cc1cn2cc(-c3cccc(N(CC45CCC(c6nc(C7CC7)no6)(CC4)CC5)C(=O)C45CC(F)(C4)C5)c3)c(C)cc2n1` [Example 320, N-((4-(3-cyclopropyl-1,2,4-oxadiazol-5-yl)bicyclo[2.2.2]octan-1-yl)methyl)-N-(3-(2,7-dimethylimidazo[1,2-a]pyridin-6-yl)phenyl)-3-fluorobicyclo[1.1.1]pentane-1-carboxamide] yielded an EC50 of 493 nM.

Molecule `COc1cc(-c2cccc(N(CC34CCC(c5nnc(C)o5)(CC3)CC4)C(=O)C34CC(F)(C3)C4)c2)ccn1` [Example 230, 3-Fluoro-N-(3-(2-methoxypyridin-4-yl)phenyl)-N-((4-(5-methyl-1,3,4-oxadiazol-2-yl)bicyclo[2.2.2]octan-1-yl)methyl)bicyclo[1.1.1]pentane-1-carboxamide] had an EC50 under setting [1] of 988 nM. As for `CCOc1ncc(-c2cccc(N(CC34CCC(c5cc(C6CC6)n(C)n5)(CC3)CC4)C(=O)C34CC(F)(C3)C4)c2)cn1` [Example 407, N-((4-(5-cyclopropyl-1-methyl-1H-pyrazol-3-yl)bicyclo[2.2.2]octan-1-yl)methyl)-N-(3-(2-ethoxypyrimidin-5-yl)phenyl)-3-fluorobicyclo[1.1.1]pentane-1-carboxamide], under setting [1], the response was half-maximal at 209 nM (EC50). Molecule `CCOc1ncc(-c2cccc(N(CC34CCC(c5nc(C6CC6)no5)(CC3)OC4)C(=O)C34CC(F)(C3)C4)c2)cn1` [Example 353, N-((1-(3-cyclopropyl-1,2,4-oxadiazol-5-yl)-2-oxabicyclo[2.2.2]octan-4-yl)methyl)-N-(3-(2-ethoxypyrimidin-5-yl)phenyl)-3-fluorobicyclo[1.1.1]pentane-1-carboxamide] had an EC50 under setting [1] of 328 nM. Take `CC(C)(C)c1nc(C23CCC(CN(C(=O)C45CC(F)(C4)C5)c4cccc(-c5ccc6[nH]c(=O)oc6c5)c4)(CC2)CC3)no1` [Example 447, N-((4-(5-(tert-butyl)-1,2,4-oxadiazol-3-yl)bicyclo[2.2.2]octan-1-yl)methyl)-3-fluoro-N-(3-(2-oxo-2,3-dihydrobenzo[d]oxazol-6-yl)phenyl)bicyclo[1.1.1]pentane-1-carboxamide]: it took 87 nM to reach a half-maximal effect under setting [1] (EC50). Under setting [1], `O=C(N(CC12CCC(c3nc(C4CC4)no3)(CC1)CC2)c1cccc(-c2ccc(OC(F)(F)F)cc2)c1)C12CC(F)(C1)C2` [Example 251, N-((4-(3-cyclopropyl-1,2,4-oxadiazol-5-yl)bicyclo[2.2.2]octan-1-yl)methyl)-3-fluoro-N-(4′-(trifluoromethoxy)-[1,1′-biphenyl]-3-yl)bicyclo[1.1.1]pentane-1-carboxamide] came in with an EC50 of 277 nM. The same measure, in the same setting: as for `O=C(N(CC12CCC(c3nc(C4CC4)no3)(CC1)CC2)c1cccc(-c2ccc3c(c2)OCO3)c1)C12CC(F)(C1)C2` [Example 255, N-(3-(benzo[d][1,3]dioxol-5-yl)phenyl)-N-((4-(3-cyclopropyl-1,2,4-oxadiazol-5-yl)bicyclo[2.2.2]octan-1-yl)methyl)-3-fluorobicyclo[1.1.1]pentane-1-carboxamide], the figure is 69.8 nM. For `COc1ncc(-c2cccc(N(CC34CCC(c5noc(C6(C)CC6)n5)(CC3)CC4)C(=O)C34CC(F)(C3)C4)c2)cn1` [Example 400, 3-fluoro-N-(3-(2-methoxypyrimidin-5-yl)phenyl)-N-((4-(5-(1-methylcyclopropyl)-1,2,4-oxadiazol-3-yl)bicyclo[2.2.2]octan-1-yl)methyl)bicyclo[1.1.1]pentane-1-carboxamide], under setting [1], the EC50 came out at 51 nM. Molecule `O=C(C1CC(O)(C(F)(F)F)C1)N(CC12CCC(C(=O)NS(=O)(=O)C3CC3)(CC1)CC2)c1cccc(-c2ccc(OC(F)F)cc2)c1` (stereo not drawn) [Example 638, N-(cyclopropylsulfonyl)-4-(((cis)-N-(4′-(difluoromethoxy)-[1,1′-biphenyl]-3-yl)-3-hydroxy-3-(trifluoromethyl)cyclobutane-1-carboxamido)methyl)bicyclo[2.2.2]octane-1-carboxamide] displayed an EC50 under setting [1] of 2000 nM.

Under setting [1], `CS(=O)(=O)Nc1ccc(-c2cncc(N(CC34CCC(c5nc(C6CC6)no5)(CC3)CC4)C(=O)C34CC(F)(C3)C4)c2)cc1` [Example 427] had an EC50 of 671 nM. The same measure, in the same setting: as for `CC1(c2nc(C34CCC(CN(C(=O)C56CC(F)(C5)C6)c5cccc(-c6ccc(NS(=O)(=O)C7CC7)cc6)c5)(CC3)CC4)no2)CC1` [Example 397, N-(4′-(cyclopropanesulfonamido)-[1,1′-biphenyl]-3-yl)-3-fluoro-N-((4-(5-(1-methylcyclopropyl)-1,2,4-oxadiazol-3-yl)bicyclo[2.2.2]octan-1-yl)methyl) bicyclo[1.1.1]pentane-1-carboxamide], the figure is 183 nM; as for `Cc1cnc(-c2cccc(N(CC34CCC(c5nc(C(C)C)no5)(CC3)CC4)C(=O)C34CC(F)(C3)C4)c2)nc1` [Example 393, 3-fluoro-N-((4-(3-isopropyl-1,2,4-oxadiazol-5-yl)bicyclo[2.2.2]octan-1-yl)methyl)-N-(3-(5-methylpyrimidin-2-yl)phenyl)bicyclo[1.1.1]pentane-1-carboxamide], 49 nM. As to `CC(C)(C)c1noc(C23CCC(CN(C(=O)C45CC(F)(C4)C5)c4cncc(-c5cnc(C6CC6)nc5)c4)(CC2)CC3)n1` [Example 473, N-((4-(3-(tert-butyl)-1,2,4-oxadiazol-5-yl)bicyclo[2.2.2]octan-1-yl)methyl)-N-(5-(2-cyclopropylpyrimidin-5-yl)pyridin-3-yl)-3-fluorobicyclo[1.1.1]pentane-1-carboxamide], the EC50 stood at 501 nM. Under setting [1], `CC(=O)Nc1cn2nc(-c3cccc(N(CC45CCC(c6nc(C7CC7)no6)(CC4)CC5)C(=O)C45CC(F)(C4)C5)c3)ccc2n1` [Example 336, N-(3-(2-acetamidoimidazo[1,2-b]pyridazin-6-yl)phenyl)-N-((4-(3-cyclopropyl-1,2,4-oxadiazol-5-yl)bicyclo[2.2.2]octan-1-yl)methyl)-3-fluorobicyclo[1.1.1]pentane-1-carboxamide] had an EC50 of 1230 nM.

The molecule `CS(=O)(=O)Nc1ccc(-c2cccc(N(CC34CCC(c5nc(C(F)F)no5)(CC3)CC4)C(=O)C34CC(F)(C3)C4)c2)cc1` [Example 469, N-((4-(3-(difluoromethyl)-1,2,4-oxadiazol-5-yl)bicyclo[2.2.2]octan-1-yl)methyl)-3-fluoro-N-(4′-(methylsulfonamido)-[1,1′-biphenyl]-3-yl)bicyclo[1.1.1]pentane-1-carboxamide] came in with an EC50 of 654 nM.

`COCc1ccc(-c2cccc(N(CC34CCC(c5nc(C6CC6)no5)(CC3)CC4)C(=O)C34CC(F)(C3)C4)c2)cn1` [Example 274, N-((4-(3-cyclopropyl-1,2,4-oxadiazol-5-yl)bicyclo[2.2.2]octan-1-yl)methyl)-3-fluoro-N-(3-(6-(methoxymethyl)pyridin-3-yl)phenyl)bicyclo[1.1.1]pentane-1-carboxamide] yielded an EC50 under setting [1] of 106 nM. The same measure, in the same setting: as for `Cc1ccnc(-c2cccc(N(CC34CCC(c5nc(C6CC6)no5)(CC3)CC4)C(=O)C34CC(F)(C3)C4)c2)n1` [Example 300, N-((4-(3-cyclopropyl-1,2,4-oxadiazol-5-yl)bicyclo[2.2.2]octan-1-yl)methyl)-3-fluoro-N-(3-(4-methylpyrimidin-2-yl)phenyl)bicyclo[1.1.1]pentane-1-carboxamide], the figure is 413 nM.
